Data on two compounds can be found in patent publication US12115157B2, “3-phenoxyazetidin-1-yl-heteroaryl pyrrolidine derivatives and the use thereof as medicament” (Boehringer Ingelheim International GmbH, priority 2021, dated 2024).

For one series, the system named is human plasma proteins. The series is described as follows: Human plasma protein binding assay (equilibrium dialysis). The series is classed as in vitro ADME. Particulars: 1 μM, 2 hours, 37° C. As for the experimental part:
Equilibrium dialysis (ED) technique was used to determine the approximate in vitro fractional binding of test compounds to plasma proteins. Dianorm Teflon dialysis cells (micro 0.2) were used. Each dialysis cell consists of a donor and an acceptor chamber, separated by an ultrathin semipermeable membrane with a 5 kDa molecular weight cut-off. Stock solutions for each test compound were prepared in DMSO at 1 mM and serially diluted to obtain a final test concentration of 1 μM. The subsequent dialysis solutions were prepared in plasma (supplemented with NaEDTA as anticoagulant), and aliquots of 200 μL test compound dialysis solution in plasma were dispensed into the donor (plasma) chambers. Aliquots of 200 μL dialysis buffer (100 mM potassium phosphate, pH 7.4) were dispensed into the buffer (acceptor) chamber. Incubation was carried out for 2 hours under rotation at 37° C. for establishing equilibrium.
At the end of the dialysis period, aliquots obtained from donor and acceptor chambers, respectively, were transferred into reaction tubes, spiked with Internal Standard solution and processed for HPLC-MS/MS analysis. Analyte concentrations were quantified in aliquots of samples by HPLC-MS/MS against external calibration curves.
Percent bound was calculated using the formula: % bound=(plasma concentration−buffer concentration/plasma concentration)×100
For orientation: Equilibrium dialysis compares concentrations on both sides of a semipermeable membrane.

For another series, the system named is human hepatocytes. In words: Metabolic stability in human hepatocytes. The class given is in vitro ADME. Particulars: human hepatocyte suspension, 1 μM; predicted hepatic clearance as percentage of hepatic blood flow. As for the experimental part: The metabolic degradation of a test compound was assayed in a human hepatocyte suspension. After recovery from cryopreservation, human hepatocytes were diluted in Dulbecco's modified eagle medium (supplemented with 3.5 μg glucagon/500 mL, 2.5 mg insulin/500 mL, 3.75 mg hydrocortisone/500 mL, 5% human serum) to obtain a final cell density of 1.0×10^6 cells/mL or 4.0×10^6 cells/mL, depending on the metabolic turnover rate of the test compound.
Following a 30 minutes preincubation in a cell culture incubator (37° C., 10% CO2), test compound solution was spiked into the hepatocyte suspension, resulting in a final test compound concentration of 1 μM and a final DMSO concentration of 0.05% (v/v).
The cell suspension was incubated at 37° C. (cell culture incubator, horizontal shaker) and samples were removed from the incubation after 0, 0.5, 1, 2, 4 and 6 hours. Samples were quenched with acetonitrile (containing internal standard) and pelleted by centrifugation. The supernatant was transferred to a 96-deepwell plate, and prepared for analysis of decline of parent compound by HPLC-MS/MS.
The percentage of remaining test compound was calculated using the peak area ratio (test compound/internal standard) of each incubation time point relative to the time point 0 peak area ratio. The log-transformed data were plotted versus incubation time, and the absolute value of the slope obtained by linear regression analysis was used to estimate in vitro half-life (T1/2).
In vitro intrinsic clearance (CLint) was calculated from in vitro T1/2 and scaled to whole liver using a hepatocellularity of 120×10^6 cells/g liver, a human liver per body weight of 25.7 g liver/kg as well as in vitro incubation parameters, applying the following equation: CL_[…]_IN VIVO[mL/min/kg]=(CL_[…][μL/min/10^6 cells]×hepatocellularity[10^6 cells/g liver]×liver factor[g/kg body weight])/1000
Hepatic in vivo blood clearance (CL) was predicted according to the well-stirred liver model considering an average liver blood flow (QH) of 20.7 mL/min/kg: CL[mL/min/kg]=CL_[…]_IN VIVO[mL/min/kg]×hepatic blood flow[mL/min/kg]/(CL_[…]_IN VIVO[mL/min/kg]+hepatic blood flow[mL/min/kg])
Results were expressed as percentage of hepatic blood flow: QH[%]=CL[mL/min/kg]/hepatic blood flow[mL/min/kg])

In the next series the target is hERG channel (Homo sapiens (Human), UniProt Q12809). The series is described as follows: hERG channel assay (whole-cell patch clamp). The class given is cell-based. Particulars: HEK293 cells stably transfected with hERG cDNA. An excerpt:
hERG Channel inhibition of compounds of the present invention was investigated as follows:
HEK (human embryonic kidney) 293 cells were stably transfected with hERG cDNA. Cells determined for use in patch clamp experiments were cultivated without antibiotic.
Cells were superfused with a bath solution containing (mM): NaCl (137), KCl (4.0), MgCl2 (1.0), CaCl2(1.8), Glucose (10), HEPES (10), pH 7.4 with NaOH. Patch pipettes were made from borosilicate glass tubing using a pipette and filled with pipette solution containing (mM): K-aspartate (130), MgCl2(5.0), EGTA (5.0), K2ATP (4.0), HEPES (10.0), pH 7.2 with KOH. Resistance of the microelectrodes was typically in the range between 2 MΩ and 5 MΩ.
Membrane currents were recorded using an EPC-10 patch clamp amplifier (HEKA Electronics, Lambrecht, FRG) and PatchMaster software (HEKA). hERG-mediated membrane currents were recorded at typically 28° C., using the whole-cell configuration of the patch-clamp technique. Transfected HEK293 cells were clamped at a holding potential of −60 mV and hERG-mediated inactivating tail currents were elicited using a pulse pattern with fixed amplitudes (activation/inactivation: 40 mV for 2000 ms; recovery: 120 mV for 2 ms; ramp to 40 mV in 2 ms; inactivating tail current: 40 mV for 50 ms) repeated at 15 s intervals. During each inter-pulse interval 4 pulses scaled down by a factor of 0.2 were recorded for a P/n leak subtraction procedure. Rs compensation was employed up to a level that safely allows recording devoid of ringing. The remaining uncompensated Rs was recorded as well as actual temperature and holding current.
The concentrations of the test item were applied sequentially on each of the different cells investigated. A steady state level of baseline current was measured for at least 5 sweeps prior to the application of the first test article concentration. The test item was dissolved in DMSO to yield a stock solution of 1000-fold the highest final concentration. This stock was diluted further in DMSO to stock solutions of 1000-fold the remaining final concentrations. Final dilutions in extracellular buffer were prepared freshly from these stocks by a 1:1000 dilution step each before starting the experiments.
Peak current amplitudes were measured 3 ms after the ramp to +40 mV. For baseline and each concentration, the peak currents of the three last sweeps before application of the next concentration were averaged. Residual currents (I/I0) were calculated for each cell as the fraction of actual average peak current and average baseline peak current. Current inhibition was expressed as […]. Current inhibition for all cells was reported as mean ±SD. If possible, from mean current inhibition data the IC50 was estimated based on the Hill equation using a least squares procedure.

The test system of series [1] is primary human hepatocytes. In words: In vitro metabolite profiling in primary human hepatocytes with or without proadifen. To be noted: for % Parent of drug-related material: incubations in primary human hepatocytes, 1 μM test compound; for Contribution of amide hydrolysis to metabolism (incl. secondary metabolites): primary human hepatocytes, abundance of deacetylated metabolites relative to all metabolites. The series is classed as in vitro ADME. As for the experimental part:
In vitro metabolite profiling to evaluate the involvement of non-CYP-enzyme-mediated metabolic pathways such as hydrolysis in addition to CYP-mediated pathways is based on the semiquantitative analysis of the formation of prototypic metabolites in incubations with liver microsomes (with and without beta-nicotinamide adenine dinucleotide phosphate, NADPH), primary human hepatocytes (with and without the pan-CYP inhibitor proadifen) and recombinant CYP enzymes.
An additional measure to identify CYP-independent metabolic pathways is the use of the pan-CYP inhibitor proadifen in incubations of the test compound with human hepatocytes. In presence of proadifen, the CYP-related pathways are inhibited and metabolites would primarily be generated via non-CYP pathways.
The involvement of non-CYP-enzymes in metabolic transformations of the test compound was further investigated using primary human hepatocytes in suspension in presence or absence of the pan-CYP inhibitor proadifen (50 μM final incubation concentration). After recovery from cryopreservation, human hepatocytes were incubated in Dulbecco's modified eagle medium supplemented with 3.5 μg glucagon/500 ml, 2.5 mg insulin/500 ml and 3.75 mg/500 ml hydrocortisone containing 5% (v/v) human serum.
Following a 30 min preincubation in a cell culture incubator (37° C., 10% CO2) with or without 50 μM proadifen, test compound solution was spiked into the hepatocyte suspension to obtain a final cell density of 1.0*10^6 to 4.0*10^6 cells/ml (depending on the metabolic turnover rate of the compound observed with primary human hepatocytes), a final test compound concentration of 1 μM, and a final DMSO concentration of 0.05% (v/v).
The cells were incubated for six hours (incubator, horizontal shaker) and samples were removed from the incubation after 0, 0.5, 1, 2, 4 or 6 hours, depending on the metabolic turnover rate. Samples were quenched with acetonitrile and pelleted by centrifugation. The supernatant was transferred to a 96-deepwell plate, evaporated under nitrogen, and resuspended prior to bioanalysis by liquid chromatography-high resolution mass spectrometry for identification of putative metabolites.
The contribution of hydrolysis was calculated based on the abundance of the respective deacetylated metabolite(s) of the compounds of the present invention relative to all metabolites observed in incubations with human hepatocytes.

hERG channel, sequence (Q12809 whole entry): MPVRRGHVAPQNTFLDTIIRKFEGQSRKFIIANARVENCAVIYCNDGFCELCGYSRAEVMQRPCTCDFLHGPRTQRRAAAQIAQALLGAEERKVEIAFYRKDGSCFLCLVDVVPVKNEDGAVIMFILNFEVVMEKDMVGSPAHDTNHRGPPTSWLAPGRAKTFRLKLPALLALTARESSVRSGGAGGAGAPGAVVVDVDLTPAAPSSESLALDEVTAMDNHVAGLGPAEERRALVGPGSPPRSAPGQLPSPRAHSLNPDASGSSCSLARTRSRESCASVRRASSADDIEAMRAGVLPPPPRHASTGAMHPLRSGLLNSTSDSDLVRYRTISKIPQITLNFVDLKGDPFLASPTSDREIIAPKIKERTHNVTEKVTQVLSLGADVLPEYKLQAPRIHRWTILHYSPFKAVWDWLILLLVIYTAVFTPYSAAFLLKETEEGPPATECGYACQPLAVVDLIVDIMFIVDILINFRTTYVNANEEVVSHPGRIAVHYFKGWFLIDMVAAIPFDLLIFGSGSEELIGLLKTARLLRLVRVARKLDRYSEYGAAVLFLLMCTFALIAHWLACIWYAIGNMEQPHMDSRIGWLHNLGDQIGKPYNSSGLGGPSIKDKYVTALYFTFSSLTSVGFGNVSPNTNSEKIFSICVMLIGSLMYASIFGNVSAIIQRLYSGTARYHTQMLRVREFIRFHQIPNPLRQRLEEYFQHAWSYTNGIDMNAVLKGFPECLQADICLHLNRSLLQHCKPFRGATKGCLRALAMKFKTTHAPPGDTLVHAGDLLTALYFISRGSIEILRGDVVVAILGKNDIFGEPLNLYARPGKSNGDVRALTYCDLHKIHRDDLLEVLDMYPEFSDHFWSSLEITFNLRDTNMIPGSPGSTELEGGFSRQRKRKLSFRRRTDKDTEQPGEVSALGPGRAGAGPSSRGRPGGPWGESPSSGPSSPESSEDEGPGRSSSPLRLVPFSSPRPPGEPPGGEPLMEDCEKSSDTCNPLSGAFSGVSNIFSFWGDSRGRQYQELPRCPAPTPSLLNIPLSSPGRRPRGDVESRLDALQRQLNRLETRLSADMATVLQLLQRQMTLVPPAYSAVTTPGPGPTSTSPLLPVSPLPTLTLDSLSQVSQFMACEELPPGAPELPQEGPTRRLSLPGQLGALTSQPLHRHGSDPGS

`CC(=O)N1C[C@H](NC(=O)c2nccnc2N2CC(Oc3ccc(F)c(F)c3)C2)C(F)(F)C1` [Example 8b]: the “Hu PPB” value with human plasma proteins stood at 79.7 % bound. Further, the “Human HepStab” value with human hepatocytes is 9.2 % QH. Moreover, the IC50 against hERG channel was over 10 µM. Moreover, in series [1], the “% Parent of drug-related material” value is listed as 84% and the “Contribution of amide hydrolysis to metabolism (incl. secondary metabolites)” value came to 19%.

Consider `CC(=O)N1C[C@H](NC(=O)c2nsnc2N2CC(Oc3ccc(F)c(F)c3)C2)C(F)(F)C1` [Example 13b], for which the “Hu PPB” value in the series on human plasma proteins is 92.8 % bound. In the series on human hepatocytes, the “Human HepStab” value was under 4.1 % QH. In addition, on hERG channel, the IC50 was over 10 µM. In addition, in series [1], the “% Parent of drug-related material” value turned out to be 70% and the “Contribution of amide hydrolysis to metabolism (incl. secondary metabolites)” value turned out to be 25%.

The IC50 is the concentration at which inhibition is half-maximal. High values mean weaker potency in that assay, low ones greater potency in that assay.
